Source: ChEMBL document CHEMBL5724806, “Unraveling interindividual differences and functional consequences of gut microbial metabolism of immunosuppressants” (2024)

Key:
Type in all cases: ADME
[1] = The drug is tested on Bacteroides stercoris strain: HM 1036 for biotransformation under anaerobic condition. The drug concentrations were measured over 6 timepoints collected between 0 and 12 hours of incubation by liquid-chromatography-coupled mass spectrometry (LC–MS); parameters: dose 5 uM, timepoint 0, 1.5, 3, 6, 9, 12 hours; details: 5 µM
[2] = (§1) The drug is tested on the gut metagenome community of T-02 with ENA study accession number: PRJEB31790 for biotransformation under microaerobic condition. The drug concentrations were measured over 7 timepoints collected between 0 and 12 hours of incubation by liquid-chromatography-coupled mass spectrometry (LC–MS); parameters: dose 5 uM, timepoint 0, 0.75, 1.5, 3, 6, 9, 12 hours; details: 5 µM
[3] = The drug is tested on Enterococcus faecalis strain: ATCC29212 for biotransformation under anaerobic condition. The drug concentrations were measured over 6 timepoints collected between 0 and 12 hours of incubation by liquid-chromatography-coupled mass spectrometry (LC–MS); parameters: dose 5 uM, timepoint 0, 1.5, 3, 6, 9, 12 hours; details: 5 µM
[4] = The drug is tested on Enterococcus faecalis strain: ATCC29212 for biotransformation under microaerobic condition. The drug concentrations were measured over 6 timepoints collected between 0 and 12 hours of incubation by liquid-chromatography-coupled mass spectrometry (LC–MS); parameters: dose 5 uM, timepoint 0, 1.5, 3, 6, 9, 12 hours; details: 5 µM
[5] = as §1, with “A-08” for “T-02”; parameters: dose 5 uM, timepoint 0, 0.75, 1.5, 3, 6, 9, 12 hours; details: 5 µM
[6] = The drug is tested on Roseburia intestinalis strain: DSM14610 for biotransformation under anaerobic condition. The drug concentrations were measured over 6 timepoints collected between 0 and 12 hours of incubation by liquid-chromatography-coupled mass spectrometry (LC–MS); parameters: dose 5 uM, timepoint 0, 1.5, 3, 6, 9, 12 hours; details: 5 µM
[7] = The drug is tested on Parabacteroides distasonis strain: DSM20701 for biotransformation under anaerobic condition. The drug concentrations were measured over 6 timepoints collected between 0 and 12 hours of incubation by liquid-chromatography-coupled mass spectrometry (LC–MS); parameters: dose 5 uM, timepoint 0, 1.5, 3, 6, 9, 12 hours; details: 5 µM
[8] = The drug is tested on Streptococcus sanguinis strain: DSM20567 for biotransformation under microaerobic condition. The drug concentrations were measured over 6 timepoints collected between 0 and 12 hours of incubation by liquid-chromatography-coupled mass spectrometry (LC–MS); parameters: dose 5 uM, timepoint 0, 1.5, 3, 6, 9, 12 hours; details: 5 µM
[9] = as §1, with “A-10” for “T-02”; parameters: dose 5 uM, timepoint 0, 0.75, 1.5, 3, 6, 9, 12 hours; details: 5 µM
[10] = The drug is tested on Lactobacillus gasseri strain: DSM20243 for biotransformation under microaerobic condition. The drug concentrations were measured over 6 timepoints collected between 0 and 12 hours of incubation by liquid-chromatography-coupled mass spectrometry (LC–MS); parameters: dose 5 uM, timepoint 0, 1.5, 3, 6, 9, 12 hours; details: 5 µM
[11] = as §1, with “A-10” for “T-02”, “anaerobic” for “microaerobic”; parameters: dose 5 uM, timepoint 0, 0.75, 1.5, 3, 6, 9, 12 hours; details: 5 µM
[12] = as §1, with “T-03” for “T-02”; parameters: dose 5 uM, timepoint 0, 0.75, 1.5, 3, 6, 9, 12 hours; details: 5 µM
[13] = as §1, with “A-03” for “T-02”, “anaerobic” for “microaerobic”; parameters: dose 5 uM, timepoint 0, 0.75, 1.5, 3, 6, 9, 12 hours; details: 5 µM
[14] = The drug is tested on Faecalibacterium prausnitzii strain: DSM17677 for biotransformation under anaerobic condition. The drug concentrations were measured over 6 timepoints collected between 0 and 12 hours of incubation by liquid-chromatography-coupled mass spectrometry (LC–MS); parameters: dose 5 uM, timepoint 0, 1.5, 3, 6, 9, 12 hours; details: faecalibacterium duncaniae, 5 µM
[15] = The drug is tested on Gemella morbillorum strain: DSM20572 for biotransformation under microaerobic condition. The drug concentrations were measured over 6 timepoints collected between 0 and 12 hours of incubation by liquid-chromatography-coupled mass spectrometry (LC–MS); parameters: dose 5 uM, timepoint 0, 1.5, 3, 6, 9, 12 hours; details: 5 µM
[16] = The drug is tested on Capnocytophaga ochracea strain: DSM7271 for biotransformation under microaerobic condition. The drug concentrations were measured over 6 timepoints collected between 0 and 12 hours of incubation by liquid-chromatography-coupled mass spectrometry (LC–MS); parameters: dose 5 uM, timepoint 0, 1.5, 3, 6, 9, 12 hours; details: 5 µM
[17] = The drug is tested on Capnocytophaga ochracea strain: DSM7271 for biotransformation under anaerobic condition. The drug concentrations were measured over 6 timepoints collected between 0 and 12 hours of incubation by liquid-chromatography-coupled mass spectrometry (LC–MS); parameters: dose 5 uM, timepoint 0, 1.5, 3, 6, 9, 12 hours; details: 5 µM
[18] = as §1, with “P-04” for “T-02”, “anaerobic” for “microaerobic”; parameters: dose 5 uM, timepoint 0, 0.75, 1.5, 3, 6, 9, 12 hours; details: 5 µM
[19] = The drug is tested on Actinomyces naeslundi strain: DSM43013 for biotransformation under microaerobic condition. The drug concentrations were measured over 6 timepoints collected between 0 and 12 hours of incubation by liquid-chromatography-coupled mass spectrometry (LC–MS); parameters: dose 5 uM, timepoint 0, 1.5, 3, 6, 9, 12 hours; details: actinomyces naeslundii, 5 µM
[20] = as §1, with “A-09” for “T-02”, “anaerobic” for “microaerobic”; parameters: dose 5 uM, timepoint 0, 0.75, 1.5, 3, 6, 9, 12 hours; details: 5 µM
[21] = The drug is tested on Bifidobacterium longum strain: DSM20088 for biotransformation under microaerobic condition. The drug concentrations were measured over 6 timepoints collected between 0 and 12 hours of incubation by liquid-chromatography-coupled mass spectrometry (LC–MS); parameters: dose 5 uM, timepoint 0, 1.5, 3, 6, 9, 12 hours; details: 5 µM
[22] = The drug is tested on Bacteroides thetaiotaomicron strain: DSM2079 for biotransformation under anaerobic condition. The drug concentrations were measured over 6 timepoints collected between 0 and 12 hours of incubation by liquid-chromatography-coupled mass spectrometry (LC–MS); parameters: dose 5 uM, timepoint 0, 1.5, 3, 6, 9, 12 hours; details: 5 µM
[23] = as §1, with “P-01” for “T-02”, “anaerobic” for “microaerobic”; parameters: dose 5 uM, timepoint 0, 0.75, 1.5, 3, 6, 9, 12 hours; details: 5 µM
[24] = The drug is tested on Parabacteroides merdae strain: DSM19495 for biotransformation under anaerobic condition. The drug concentrations were measured over 6 timepoints collected between 0 and 12 hours of incubation by liquid-chromatography-coupled mass spectrometry (LC–MS); parameters: dose 5 uM, timepoint 0, 1.5, 3, 6, 9, 12 hours; details: 5 µM
[25] = as §1, with “A-05” for “T-02”, “anaerobic” for “microaerobic”; parameters: dose 5 uM, timepoint 0, 0.75, 1.5, 3, 6, 9, 12 hours; details: 5 µM
[26] = The drug is tested on Prevotella copri strain: DSM18205 for biotransformation under anaerobic condition. The drug concentrations were measured over 6 timepoints collected between 0 and 12 hours of incubation by liquid-chromatography-coupled mass spectrometry (LC–MS); parameters: dose 5 uM, timepoint 0, 1.5, 3, 6, 9, 12 hours; details: segatella copri, 5 µM
[27] = as §1, with “A-04” for “T-02”; parameters: dose 5 uM, timepoint 0, 0.75, 1.5, 3, 6, 9, 12 hours; details: 5 µM
[28] = The drug is tested on Streptococcus anginosus strain: DSM20563 for biotransformation under anaerobic condition. The drug concentrations were measured over 6 timepoints collected between 0 and 12 hours of incubation by liquid-chromatography-coupled mass spectrometry (LC–MS); parameters: dose 5 uM, timepoint 0, 1.5, 3, 6, 9, 12 hours; details: 5 µM
[29] = The drug is tested on Bifidobacterium adolescentis strain: DSM20083 for biotransformation under anaerobic condition. The drug concentrations were measured over 6 timepoints collected between 0 and 12 hours of incubation by liquid-chromatography-coupled mass spectrometry (LC–MS); parameters: dose 5 uM, timepoint 0, 1.5, 3, 6, 9, 12 hours; details: 5 µM
[30] = The drug is tested on Lactobacillus ruminis strain: ATCC25644 for biotransformation under anaerobic condition. The drug concentrations were measured over 6 timepoints collected between 0 and 12 hours of incubation by liquid-chromatography-coupled mass spectrometry (LC–MS); parameters: dose 5 uM, timepoint 0, 1.5, 3, 6, 9, 12 hours; details: ligilactobacillus ruminis, 5 µM

Bacterial Biotransformation [1]	Bacterial Biotransformation [2]	Bacterial Biotransformation [3]	Bacterial Biotransformation [4]	Bacterial Biotransformation [5]	Bacterial Biotransformation [6]	Bacterial Biotransformation [7]	Bacterial Biotransformation [8]	Bacterial Biotransformation [9]	Bacterial Biotransformation [10]	Bacterial Biotransformation [11]	Bacterial Biotransformation [12]	Bacterial Biotransformation [13]	Bacterial Biotransformation [14]	Bacterial Biotransformation [15]	Bacterial Biotransformation [16]	Bacterial Biotransformation [17]	Bacterial Biotransformation [18]	Bacterial Biotransformation [19]	Bacterial Biotransformation [20]	Structure (SMILES)	further results
Compound NOT metabolized	Compound NOT metabolized	Compound NOT metabolized	Compound metabolized	Compound metabolized	Compound NOT metabolized	Compound NOT metabolized	Compound NOT metabolized	Compound NOT metabolized	Compound NOT metabolized	Compound NOT metabolized	Compound NOT metabolized	Compound metabolized	Compound NOT metabolized	Compound NOT metabolized	Compound NOT metabolized	Compound NOT metabolized	Compound NOT metabolized	Compound NOT metabolized	Compound metabolized	CNC(=C[N+](=O)[O-])NCCSCc1ccc(CN(C)C)o1 [RANITIDINE]	Bacterial Biotransformation [21]: Compound NOT metabolized; Bacterial Biotransformation [22]: Compound NOT metabolized; Bacterial Biotransformation [23]: Compound metabolized; Bacterial Biotransformation [24]: Compound NOT metabolized; Bacterial Biotransformation [25]: Compound NOT metabolized; Bacterial Biotransformation [26]: Compound NOT metabolized; Bacterial Biotransformation [27]: Compound metabolized; Bacterial Biotransformation [28]: Compound NOT metabolized; Bacterial Biotransformation [29]: Compound NOT metabolized; Bacterial Biotransformation [30]: Compound NOT metabolized
Compound NOT metabolized	Compound NOT metabolized	Compound NOT metabolized	Compound NOT metabolized	Compound NOT metabolized	Compound NOT metabolized	Compound NOT metabolized	Compound NOT metabolized	Compound NOT metabolized	Compound NOT metabolized	Compound NOT metabolized	Compound NOT metabolized	Compound NOT metabolized	Compound NOT metabolized	Compound NOT metabolized	Compound NOT metabolized	Compound NOT metabolized	Compound NOT metabolized	Compound NOT metabolized	Compound NOT metabolized	CC(C)NCC(O)COc1ccc(CC(N)=O)cc1 (stereo not given) [ATENOLOL]	Bacterial Biotransformation [21]: Compound NOT metabolized; Bacterial Biotransformation [22]: Compound NOT metabolized; Bacterial Biotransformation [23]: Compound NOT metabolized; Bacterial Biotransformation [24]: Compound NOT metabolized; Bacterial Biotransformation [25]: Compound NOT metabolized; Bacterial Biotransformation [26]: Compound NOT metabolized; Bacterial Biotransformation [27]: Compound NOT metabolized; Bacterial Biotransformation [28]: Compound NOT metabolized; Bacterial Biotransformation [29]: Compound NOT metabolized; Bacterial Biotransformation [30]: Compound NOT metabolized
Compound NOT metabolized	Compound metabolized	Compound NOT metabolized	Compound NOT metabolized	Compound metabolized	Compound NOT metabolized	Compound metabolized	Compound NOT metabolized	Compound metabolized	Compound metabolized	Compound NOT metabolized	Compound NOT metabolized	Compound metabolized	Compound NOT metabolized	Compound metabolized	Compound metabolized	Compound NOT metabolized	Compound NOT metabolized	Compound NOT metabolized	Compound metabolized	COc1ccc([C@@H]2Sc3ccccc3N(CCN(C)C)C(=O)[C@@H]2OC(C)=O)cc1 [DILTIAZEM]	Bacterial Biotransformation [21]: Compound NOT metabolized; Bacterial Biotransformation [22]: Compound metabolized; Bacterial Biotransformation [23]: Compound metabolized; Bacterial Biotransformation [24]: Compound metabolized; Bacterial Biotransformation [25]: Compound metabolized; Bacterial Biotransformation [26]: Compound NOT metabolized; Bacterial Biotransformation [27]: Compound metabolized; Bacterial Biotransformation [28]: Compound NOT metabolized; Bacterial Biotransformation [29]: Compound NOT metabolized; Bacterial Biotransformation [30]: Compound NOT metabolized
